Test results as given in patent US8741659B2, “Composition for measuring the binding affinity between nucleic acid and test substance, and use thereof” (Osaka University, priority 2007, dated 2014).

Assays:
RRE [1] = assay: Displacement assay using Rev peptide after formation of complex with RRE; type: binding, HIV-1; settings: for fluorescence intensity in displacement assay / recovery rate of the fluorescence intensity: compound and RRE each 2 μM
Experimental: In this Example, a binding affinity between a test substance and RRE was evaluated, with use of the compounds, X2S, X2S(3), X2S(4), X2S(5), X2S(2-Me), and 3,6-X2S(2). As the test substance, Rev protein used in Example 5 was used.
Firstly, in the same manner as in Example 3, the above compounds and RREs were respectively dissolved in cacodylate buffer solutions (sodium cacodylate: 10 mM pH 7.0, NaCl: 100 mM) each at 2 μM, so that an X2S-RRE solution, an X2S(3)-RRE solution, an X2S(4)-RRE solution, an X2S(5)-RRE solution, an X2S(2-Me)-RRE solution, and a 3,6-X2S(2)-RRE solution were prepared.
To each of these solutions, Rev protein was added in stages at 0 μM, 0.4 μM, 0.8 μM, 1.2 μM, 1.6 μM, 2.0 μM, 2.4 μM, 2.8 μM, 3.2 μM, 3.6 μM, and 4.0 μM. Further, a fluorescence intensity was measured at each concentration. The fluorescence intensity was measured in the same manner as that described in Example 14.
Each of FIGS. 43 to 48 is a view illustrating a result of the measurement of a binding affinity between Rev protein and RRE. […] In each of FIGS. 43 to 48, the horizontal axis represents the fluorescence wavelength, whereas the vertical axis represents the fluorescence intensity. […] Further, along the direction of the arrow extending from the curved line at the bottom, the curved lines, showing the respective results, are arranged in order of increasing amount of the test substance which was added.
FIG. 49 is a view illustrating a relationship between an amount of Rev added and a fluorescence intensity, in connection with X2S, X2S(3), X2S(4), X2S(5), X2S(2-Me), and 3,6-X2S(2). Further, FIG. 49 is also a view plotting, based on the results illustrated in FIGS. 43 to 48, the fluorescence intensities detected at the fluorescence wavelength at which the respective fluorescence peaks were observed. FIG. 50 is a graph illustrating a relationship between an amount of Rev added and a recovery rate of the fluorescence intensity. In FIG. 49, the vertical axis represents the fluorescence intensity. In FIG. 50, the vertical axis represents the recovery rate of the fluorescence intensity. In each of FIGS. 49 and 50, the horizontal axis represents the amount of Rev added. That is, each of FIGS. 49 and 50 reflects amounts of the above compounds liberated from RREs due to the addition of Rev.
The recovery rate of the fluorescence intensity was obtained by dividing (i) a maximum value of the fluorescence intensity detected at each Rev concentration ranging from 0 μM to 4.0 μM in each of FIGS. 43 to 48 by (ii) a maximum value of the fluorescence intensity of the curved line at the top in each of FIGS. 43 to 48.
In this Example, 1-Pyrenemethanamide, hydrochloride was used to measure a binding affinity between a test substance and RRE. As the test substance, Rev protein used in Example 5 was used.
Firstly, in the same manner as in Example 3, 1-Pyrenemethanamide, hydrochloride and RRE were dissolved in a cacodylate buffer solution (sodium cacodylate: 10 mM, pH 7.0; NaCl: 100 mM) each at 2 μM, so that a 1-Pyrenemethanamide, hydrochloride-RRE solution was prepared.
To the solution, Rev protein was added in steps at 0 μM, 0.4 μM, 0.8 μM, 1.2 μM, 1.6 μM, 2.0 μM, 2.4 μM, 2.8 μM, 3.2 μM, 3.6 μM, and 4.0 μM. Further, the solution at each concentration was irradiated with light having an excitation wavelength of 340 nm, and a fluorescence intensity was measured. A device used for measuring a fluorescence intensity and a variation in a slit width were the same as those in Example 13.
FIG. 55 is a view illustrating a result of the measurement of a binding affinity between Rev protein and RRE. The horizontal axis represents the fluorescence wavelength, whereas the vertical axis represents the fluorescence intensity. […] Further, along a bottom-to-top direction, the curved lines, showing the respective results, are arranged in order of increasing amount of the test substance which was added. […]

[2] = test system: RNAs of FIG. 2 (SEQ ID NOs: 1 through 3), with or without bulge structure; assay: Evaluation of binding between xanthone fluorescent molecule and RNA (fluorescence before and after mixing RNA); settings: 10 μM compound
Experimental: Next, binding between X2S and RNAs was evaluated. The RNAs used in the present example had the structure illustrated in FIG. 2. FIG. 2 is a diagram schematically illustrating the structure of the RNAs used in the present example. The RNAs used in the present example had sequences shown in SEQ ID NOs: 1 through 3.
The symbol N in FIG. 2 represents either a base out of A, U, C, and G, or no base. Thus, in a case where a particular RNA as in FIG. 2 has N representing a base out of A, U, C, and G, the RNA is an RNA formed by hybridization of an RNA having the base sequence shown in SEQ ID NO: 1 with a single strand RNA having the base sequence shown in SEQ ID NO: 2. On the other hand, in a case where a particular RNA as in FIG. 2 has N representing no base, the RNA is an RNA formed by hybridization of an RNA having the base sequence shown in SEQ ID NO: 1 with an RNA having the base sequence shown in SEQ ID NO: 3.
This also applies to other bases. The RNAs used in the present example were purchased from Hokkaido System Science Co., Ltd.
Firstly, X2S was mixed in a cacodylate buffer solution (sodium cacodylate: 10 mM, pH 7.0; NaCl: 100 mM) at 10 μM, so that an X2S solution was obtained. The X2S solution was irradiated with light having an absorption maximum of 371±3 nm, and a fluorescence intensity was then measured. The fluorescence intensity was measured with use of a device (product number: RF-5300PC) available from Shimadzu Corporation. For each type of the RNAs, the fluorescence intensity was measured after the RNA was mixed in the X2S solution at 30 μM.
FIGS. 3 and 4 compare the fluorescence intensities measured before and after the RNA was mixed. […] The horizontal axis represents the fluorescence wavelength, whereas the vertical axis represents the fluorescence intensity. FIG. 4 is an enlarged graph corresponding to the fluorescence intensity of 5 A.U. in FIG. 3 and its vicinity.
Binding between X1S and RNAs was evaluated by a method identical to the method described in Example 2, except that X1S was used instead of X2S. […]

RRE [3] = assay: Displacement assay using X2S; type: binding, HIV-1; settings: for binding affinity with respect to RRE / change of fluorescence intensity on addition of test substance: X2S and RRE each 2 μM, test substance 0-4.0 μM; for change of fluorescence intensity on addition of test substance: 453 nm
Excerpt: In this Example, X2S was used to measure a binding affinity between a test substance and RRE. As the test substance, Rev protein (supplied by Professor Takashi MORII, Graduates School of Energy Science, Kyoto University), aminoglycoside antibiotic neomycin (available from Sigma-Aldrich, product number; N-1876) (hereinafter, simply referred to as “neomycin”), and thrombin (available from Bachem, product number; AG H-8550) were used. […] The structure of Rev protein is shown in FIG. 9, and the amino acid sequence of Rev protein is shown in SEQ ID NO: 5. FIG. 9 is a view schematically illustrating the structure of Rev protein. Further, the structure of thrombin is shown in FIG. 10, and the amino acid sequence of thrombin is shown in SEQ ID NO: 6. FIG. 10 is a view schematically illustrating the structure of thrombin.
Firstly, in the same manner as in Example 3, X2S and RRE were dissolved in a cacodylate buffer solution (sodium cacodylate: 10 mM, pH 7.0; NaCl: 100 mM) each at 2 μM. Thus, an X2S-RRE solution was prepared.
To the X2S-RRE solution, Rev protein was added in steps at 0 μM, 0.4 μM, 0.8 μM, 1.2 μM, 1.6 μM, 2.0 μM, 2.4 μM, 2.8 μM, 3.2 μM, 3.6 μM, and 4.0 μM. Further, a fluorescence intensity was measured at each concentration. Similarly, to the X2S-RRE solution, neomycin was added in steps at 0 μM, 0.4 μM, 0.8 μM, 1.2 μM, 1.6 μM, 2.0 μM, 2.4 μM, 2.8 μM, 3.2 μM, 3.6 μM, and 4.0 μM. Further, a fluorescence intensity was measured at each concentration. Similarly, to the X2S-RRE solution, thrombin was added in steps at 0 μM, 0.4 μM, 0.8 μM, 1.2 μM, 1.6 μM, 2.0 μM, 2.4 μM, 2.8 μM, 3.2 μM, 3.6 μM, and 4.0 μM. Further, a fluorescence intensity was measured at each concentration. The fluorescence intensities were measured in the same manner as that described in Example 2.
FIG. 11 is a view illustrating a result of the measurement of a binding affinity between Rev protein and RRE; FIG. 12 is a view illustrating a result of the measurement of a binding affinity between neomycin and RRE; and FIG. 13 is a view illustrating a result of the measurement of a binding affinity between thrombin and RRE. In each of FIGS. 11 to 13, the horizontal axis represents the fluorescence wavelength, whereas the vertical axis represents the fluorescence intensity. […] Furthermore, along the direction of the arrow extending from the curved line at the bottom, the curved lines are arranged in order of increasing amount of the test substance which was added.
FIG. 14 is a view plotting the fluorescence intensities at a fluorescence wavelength of 453 nm shown in the results illustrated in FIGS. 11 to 13. The horizontal axis represents the concentration of each test substance, whereas the vertical axis represents the fluorescence intensity. In FIG. 14, the circle marks represent the result obtained in the case involving use of Rev protein, the square marks represent the result obtained in the case involving use of neomycin, and the triangle marks represent the result obtained in the case involving use of thrombin.
A displacement assay using X2S was performed in the same manner as that described in Example 5, except that, in this Example, fluorescence was measured also when Rev protein was added at concentrations of 4.4 μM and 4.8 μM.
FIG. 16 is a view illustrating the result of the displacement assay using X2S. The horizontal axis represents the fluorescence wavelength, whereas the vertical axis represents the fluorescence intensity.

Compound	fluorescence intensity in displacement assay (RRE [1]; Rev protein 0-4.0 μM)	recovery rate of the fluorescence intensity (RRE [1]; Rev protein 0-4.0 μM)	binding affinity with respect to RRE (RRE [3])	change of fluorescence intensity on addition of test substance (RRE [3])	other results
NCCOc1ccc2c(=O)c3ccc(OCCN)cc3oc2c1 [3,6-X2S(2), 3,6-bis(2-aminoethoxy)xanthen-9-one]	low	almost equal to that of X2S			
NCCOc1ccc2oc3ccccc3c(=O)c2c1 [X1S, 2-(2-aminoethoxy)xanthen-9-one]					binding to RNAs ([2]; 30 μM RNA (A, U, C, G bulge or no bulge), cacodylate buffer pH 7.0, NaCl 100 mM): binds to RNAs regardless of whether the bulge structure is present; detected decrease in the fluorescence intensity on mixing RNA ([2]; 30 μM RNA, compared with X2S): small as compared to the case of X2S
CC(N)COc1ccc2oc3ccc(OCC(C)N)cc3c(=O)c2c1 (stereo not shown) [X2S(2-Me), 2,7-bis(2-methyl-2-aminoethoxy)xanthen-9-one]	lower than that of X2S	highest			
Rev protein: Rev protein, SEQ ID NO: 5, known to bind to RRE; test substance (TRQARRNRRRRWRERQRAAAAR; Human immunodeficiency virus type 1)			significantly high binding affinity	increased the fluorescence intensity	fluorescence intensity recovered (RRE [3]; X2S-RRE solution, FIG. 14, 453 nm): approximately 80%; change of fluorescence intensity on addition of Rev protein (RRE [1]; 1-Pyrenemethanamide, hydrochloride and RRE each 2 μM, excitation 340 nm): increased the fluorescence intensity; binding affinity of Rev protein with respect to RRE (RRE [1]; measured with X2S, X2S(3), X2S(4), X2S(5), X2S(2-Me), 3,6-X2S(2), each 2 μM with RRE): significantly high binding affinity; change of fluorescence intensity on addition of Rev protein (RRE [1]; xanthone compounds and RRE each 2 μM, Rev protein 0-4.0 μM): increased the fluorescence intensity
neomycin [reference compound]			lower binding affinity with respect to RRE compared with Rev protein	slightly increased the fluorescence intensity	
thrombin			does not bind to RRE	hardly increased the fluorescence intensity	
